Reference: the supplement of paper PMC11451515

What was measured:
Assay in all cases: AUC of viability dose-response curve (% viability x log10 dose units); higher = less sensitive
Settings in all cases: 48 h
NOMO1 = test system: NOMO1
Outline: (§1)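 Viability of medium-adapted leukemia cells was measured by CellTiter-Glo One luminescence after 48 h at 37°C with library compounds in DMSO. Doses were 11 threefold steps from 47 μM to 0.79 nM, in 1536-well plates at 500 or 1000 cells/well. Signals were normalised per plate to DMSO and cell-free wells and fitted with a four-parameter log-logistic model on log10 dose. Area under the curve was integrated by trapezoidal rule, with curves exceeding full viability scaled and failed quality-control curves removed.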

SEM cells = test system: SEM cells
Outline: as §1

P12-Ichikawa = test system: P12-Ichikawa
Outline: as §1

[1] = RPMI 5 mM glucose + 10% dialyzed FBS

Row | Compound | AUC of viability dose-response curve (NOMO1; HPLM + 10% dialyzed FBS) | AUC of viability dose-response curve (NOMO1; RPMI 5 mM glucose + 10% FBS) | AUC of viability dose-response curve (NOMO1; [1]) | AUC of viability dose-response curve (SEM cells; HPLM + 10% dialyzed FBS) | AUC of viability dose-response curve (SEM cells; RPMI 5 mM glucose + 10% FBS) | AUC of viability dose-response curve (SEM cells; [1]) | AUC of viability dose-response curve (P12-Ichikawa; HPLM + 10% dialyzed FBS) | AUC of viability dose-response curve (P12-Ichikawa; RPMI 5 mM glucose + 10% FBS) | AUC of viability dose-response curve (P12-Ichikawa; [1])
1 | O=C1c2cccc(O)c2C(=O)c2c(O)cc(CO)cc21 | 417 | 424 | 451 | 474 | 451 | 422 | 452 | 450 | 431
2 | COc1ccc2cc(-c3[nH]c(-c4ccc([S+](C)[O-])cc4)nc3-c3ccncc3)ccc2c1 (stereo not drawn) | 461 | 390 | 435 | 451 | 463 | 460 | 472 | 468 | 464
3 | COC(=O)N[C@H](C(=O)N[C@@H](Cc1ccccc1)[C@@H](O)CN(Cc1ccc(-c2ccccn2)cc1)NC(=O)[C@@H](NC(=O)OC)C(C)(C)C)C(C)(C)C | 388 | 470 | 453 | 464 | 457 | 469 | 455 | 467 | 451
4 | c1ccc2c(-c3cnn4cc(-c5ccc(N6CCNCC6)cc5)cnc34)ccnc2c1 | – | – | – | 355 | 379 | 394 | – | – | –
5 | CN(C(=O)c1ccc(F)cc1C(F)(F)F)C1CCN(c2nnc(-c3ccnn3C)c3ccccc23)CC1 | – | – | – | 331 | 373 | 326 | 387 | 365 | 355
6 | c1ccc2c(Oc3nc(Nc4ccc(N5CCOCC5)cc4)c4ncn(C5CCCCC5)c4n3)cccc2c1 | 439 | 440 | 466 | 462 | 452 | 458 | 451 | 462 | 466
7 | C[C@H]1[C@@H](CC(C[C@H]2O[C@@H]3O[C@]4(C)CC[C@H]5[C@H](C)CC[C@@H]([C@H]2C)[C@@]35OO4)C[S+](=O)([O-])c2ccc(COC(=O)N(C)C)cc2)O[C@@H]2O[C@]3(C)CC[C@H]4[C@H](C)CC[C@@H]1[C@@]24OO3 | 301 | 329 | 299 | 297 | 284 | 284 | 351 | 348 | 341
8 | CCOC(=O)c1ccc(C#Cc2ccc3c(c2)C(C)(C)CCS3)nc1 | 436 | 467 | 450 | 472 | 477 | 446 | 470 | 469 | 475
9 | COC1=CC=C2C(=CC=NC2=C1)OC3=CC=C(NC(=O)\C4=C(C)\N(CC(C)(C)O)N(C4=O)C5=CC=CC=C5)C=C3F | 459 | 468 | 467 | 404 | 379 | 365 | 472 | 468 | 469
10 | CCC1=C(C)CN(C(=O)NCCc2ccc(S(=O)(=O)NC(=O)N[C@H]3CC[C@H](C)CC3)cc2)C1=O | 475 | 439 | 457 | 417 | 443 | 445 | 458 | 442 | 458
11 | CO[C@@H]1[C@H](N(C)C(=O)c2ccccc2)C[C@H]2O[C@]1(C)n1c3ccccc3c3c4c(c5c6ccccc6n2c5c31)C(=O)NC4 | 415 | 424 | 412 | 313 | 308 | 305 | 373 | 380 | 386
12 | COc1cc(/C=C/C(=O)CC(=O)/C=C/c2ccc(O)c(OC)c2)ccc1O | 419 | 440 | 441 | 406 | 409 | 417 | 416 | 431 | 433
13 | Cc1cc(SCc2sc(-c3ccc(C(F)(F)F)c(F)c3)nc2C)ccc1OCC(=O)O | 458 | 439 | 467 | 461 | 432 | 446 | 466 | 449 | 439
14 | c1ccc(-c2nn3c(c2-c2ccnc4cc(OCCN5CCOCC5)ccc24)CCC3)nc1 | 450 | 467 | 471 | 458 | 468 | 472 | 438 | 420 | 448
15 | Cc1c(OCC(F)(F)F)ccnc1C[S+]([O-])c1nc2ccccc2[nH]1 (stereo not drawn) | 456 | 469 | 448 | 420 | 475 | 453 | 466 | 459 | 471
16 | O=C(Oc1ccc([N+](=O)[O-])cc1)N1CCN(Cc2cccc(Oc3ccccc3)c2)CC1 | 469 | 460 | 451 | 433 | 453 | 468 | 468 | 475 | 457
17 | CCCCc1oc2ccc(NS(C)(=O)=O)cc2c1C(=O)c1ccc(OCCCN(CCCC)CCCC)cc1 | 367 | 332 | 361 | – | – | – | 414 | 409 | 413
18 | CN[C@@H](C)C(=O)N[C@H]1CCCC[C@H]2CC[C@@H](C(=O)N[C@@H](c3ccccc3)c3cn(CCCCc4ccc(CCCCn5cc([C@@H](NC(=O)[C@@H]6CC[C@@H]7CCCC[C@H](NC(=O)[C@H](C)NC)C(=O)N76)c6ccccc6)nn5)cc4)nn3)N2C1=O | 250 | 325 | 297 | 431 | 417 | 418 | 465 | 471 | 450

Row | Compound | AUC of viability dose-response curve (NOMO1; HPLM + 10% dialyzed FBS) | AUC of viability dose-response curve (NOMO1; RPMI 5 mM glucose + 10% FBS) | AUC of viability dose-response curve (NOMO1; [1]) | AUC of viability dose-response curve (SEM cells; HPLM + 10% dialyzed FBS) | AUC of viability dose-response curve (SEM cells; RPMI 5 mM glucose + 10% FBS) | AUC of viability dose-response curve (SEM cells; [1]) | AUC of viability dose-response curve (P12-Ichikawa; HPLM + 10% dialyzed FBS) | AUC of viability dose-response curve (P12-Ichikawa; RPMI 5 mM glucose + 10% FBS) | AUC of viability dose-response curve (P12-Ichikawa; [1])
19 | Cc1ccccc1C(C(=O)NC1CCCCC1)N(C(=O)CNc1ccc(C#N)cc1)c1cccc(F)c1 (stereo not drawn) | – | – | – | 471 | 454 | 470 | 453 | 476 | 467
20 | CCOP(=O)(OCC)C(C)NC(=O)N(CCCl)N=O (stereo not drawn) | 441 | 402 | 466 | 470 | 447 | 461 | 431 | 453 | 436
21 | CN1C(=O)COc2c(C(=O)NC3CN4CCC3CC4)cc(Cl)cc21 (stereo not drawn) | 448 | 464 | 439 | 457 | 453 | 471 | – | – | –
22 | N=C(N)c1ccc(OCCCCCOc2ccc(C(=N)N)cc2)cc1 | 441 | 447 | 441 | 457 | 463 | 465 | 467 | 456 | 458
23 | CCCn1c(=O)c2[nH]c(-c3cnn(Cc4cccc(C(F)(F)F)c4)c3)nc2n(CC)c1=O | 394 | 443 | 413 | 470 | 467 | 467 | 446 | 388 | 438
24 | CC(=O)SCC(Cc1ccccc1)C(=O)NCC(=O)OCc1ccccc1 (stereo not drawn) | 390 | 358 | 351 | 451 | 443 | 442 | 439 | 445 | 418
25 | CN1[C@@H]2CC(O)C[C@H]1[C@@H]1O[C@@H]12 (stereo partly drawn) | 451 | 453 | 451 | – | – | – | 455 | 448 | 454
26 | CC(C)[C@@H](N(CCCN)C(=O)C1=CC=C(C)C=C1)C/2=C(\CC3=CC=CC=C3)C(=O)C4=C(O2)C=C(Cl)C=C4 | – | – | – | 116 | 96.8 | 99.8 | – | – | –
27 | CC1=C2N=C([NH]C2=CC(=C1)N3CCOCC3)\C4=C(NC[C@@H](O)C5=CC=CC(=C5)Cl)\C=C/NC4=O | 385 | 411 | 378 | – | – | – | 469 | 469 | 465
28 | COc1cc(N2CCC(N3CCN(C)CC3)CC2)ccc1Nc1ncnc(Nc2ccccc2[S+](=O)([O-])C(C)C)n1 | – | – | – | 361 | 354 | 400 | 447 | 458 | 451
29 | COc1ccc(Cn2ccc3ccc(C(=O)NO)cc32)cc1 | 446 | 461 | 469 | 464 | 460 | 462 | – | – | –
30 | CCC(CC)[C@H](NC(C)=O)[C@@H]1[C@H](O)[C@@H](C(=O)O)C[C@H]1NC(=N)N | 404 | 407 | 395 | 335 | 394 | 365 | – | – | –
31 | CC1(C)OC/2=C(\[C@H](NCC3=CC=CC=C3)[C@@H]1O)C(=O)C4=CC=CC=C4C2=O | – | – | – | 417 | 363 | 413 | 424 | 397 | 416
32 | C=C1C[C@@]2(O)O[C@@]3(C[C@H]2C(C)C)[C@@H](C)CC[C@@H]13 | 466 | 451 | 465 | – | – | – | 469 | 460 | 449
33 | NC/1=N/C(=O)N(/C=C1)[C@H]2CC[C@@H](CO)O2 | 435 | 404 | 422 | 437 | 415 | 385 | – | – | –
34 | C[Se]CCC(N)C(=O)O (stereo not drawn) | 406 | 406 | 394 | – | – | – | 407 | 390 | 388
35 | O=P(O)(O)C(O)(Cc1cccnc1)P(=O)(O)[O][Na] (stereo not drawn) | – | – | – | 411 | 409 | 406 | – | – | –
